Laboratory results taken from patent US11266643B2, “Triaryl compounds for treatment of PD-L1 diseases” (CHEMOCENTRYX, INC., priority 2019, dated 2022).

Biological target: human PD-L1 (Homo sapiens (Human), UniProt Q9NZQ7)
Test: Enzyme-Linked Immunosorbent Assay (ELISA), PD-1/PD-L1 binding
Settings: PD-1/PD-L1 ELISA, human PD-L1 coated plates, Table 1
Method in brief: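 Competitive ELISA: human PD-1 […] (0.31 μg/mL) and serially diluted compounds (1:5) incubated 1 h at 37° C on wells coated with […] human PD-L1. Signal via streptavidin-HRP/TMB, stopped with 2 N H2SO4, measured as A450.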

human PD-L1, sequence (Q9NZQ7 19-239): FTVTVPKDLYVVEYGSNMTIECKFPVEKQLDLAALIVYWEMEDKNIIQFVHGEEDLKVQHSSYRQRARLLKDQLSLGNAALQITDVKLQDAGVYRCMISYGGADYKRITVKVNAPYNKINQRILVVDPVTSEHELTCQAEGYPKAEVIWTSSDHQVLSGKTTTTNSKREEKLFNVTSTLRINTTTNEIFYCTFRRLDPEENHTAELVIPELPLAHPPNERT

IC50 [nM] | Structure (SMILES)
< 10 | COc1cc(-c2cccc(-c3cccc(NC(=O)c4cncn(C)c4=O)c3C)c2C)cc(F)c1CNC1CCCC1 [Example 1.198]
< 10 | COc1cc(-c2cccc(-c3cccc(NC(=O)c4cncn(C)c4=O)c3C)c2C)cc(F)c1CN[C@@H]1CCC[C@@H]1O [Example 1.199]
< 10 | COc1cc(-c2cccc(-c3cccc(Nc4nccc5nccnc45)c3C)c2C)cc(F)c1CNC[C@@H]1CCC(=O)N1 [Example 1.200]
< 10 | COc1cc(-c2cccc(-c3cccc(NC(=O)c4c[nH]c(=O)n(C)c4=O)c3C)c2C)cc(F)c1CNC[C@@H]1CCC(=O)N1 [Example 1.201]
< 10 | COc1cc(-c2cccc(-c3cccc(NC(=O)c4cncn(C)c4=O)c3C)c2C)cc(F)c1CNC1CCC1 [Example 1.202]
< 10 | COc1cc(-c2cccc(-c3cccc(NC(=O)c4cncn(C)c4=O)c3C)c2C)cc(F)c1CNC[C@@H](C)O [Example 1.203]
< 10 | COc1cc(-c2cccc(-c3cccc(NC(=O)c4cncn(C)c4=O)c3C)c2C)cc(F)c1CN[C@H](C)CO [Example 1.204]
< 10 | COc1cc(-c2cccc(-c3cccc(NC(=O)c4cncn(C)c4=O)c3C)c2C)cc(F)c1CNCC(C)(C)O [Example 1.205]
< 10 | COc1cc(-c2cccc(-c3cccc(Nc4nccc5nccnc45)c3C)c2C)cc(F)c1CN[C@@H]1CNC(=O)C1 [Example 1.206]
< 10 | COc1cc(-c2cccc(-c3cccc(Nc4nccc5nccnc45)c3C)c2C)cc(F)c1CN[C@H](C)CO [Example 1.207]
< 10 | COc1cc(-c2cccc(-c3cccc(Nc4nccc5nccnc45)c3C)c2C)cc(F)c1CNC[C@@H](C)O [Example 1.208]
< 10 | COc1cc(-c2cccc(-c3cccc(NC(=O)c4cncn(C)c4=O)c3C)c2C)cc(F)c1CN[C@@H]1CNC(=O)C1 [Example 1.209]
< 10 | COc1cc(-c2cccc(-c3cccc(NC(=O)C4=CNCN(C)C4=O)c3C)c2C)cc(F)c1CNCCO [Example 1.210]
< 10 | COc1cc(-c2cccc(-c3cccc(NC(=O)c4cncn(C)c4=O)c3C)c2C)cc(F)c1CNC[C@@H]1CCC(=O)N1 [Example 1.211]
10 to 1000 | COc1cc(-c2cccc(-c3cccc(NC(=O)c4c[nH]c(=O)n(C)c4=O)c3C)c2C)cc(F)c1CNC1CNC1 [Example 1.212]
< 10 | COc1cc(-c2cccc(-c3cccc(Nc4nccc5nccnc45)c3C)c2C)cc(F)c1CNC1CCOC1 (stereo not shown) [Example 1.213]

Same assay, conditions: human PD-1/PD-L1 ELISA, plates coated with human PD-L1

IC50 [nM] | Structure (SMILES)
< 10 | COc1cc(-c2cccc(-c3cccc(NC(=O)c4cccn(C)c4=O)c3C)c2C)cc(F)c1CN(C)C[C@@H]1CCC(=O)N1 [Example 1.167]
< 10 | COc1cc(-c2cccc(-c3cccc(NC(=O)c4cccn(C)c4=O)c3C)c2C)cc(F)c1CNC1CCOC1 (stereo not shown) [Example 1.168]
10 to 1000 | COc1cc(-c2cccc(-c3cccc(NC(=O)c4cccn(C)c4=O)c3C)c2C)cc(F)c1CNC1COC1 [Example 1.169]
< 10 | COc1cc(-c2cccc(-c3cccc(NC(=O)c4cccn(C)c4=O)c3C)c2C)cc(F)c1CNC(C)C [Example 1.170]
< 10 | COc1cc(-c2cccc(-c3cccc(NC(=O)c4cccn(C)c4=O)c3C)c2C)cc(F)c1CN[C@@H]1CNC(=O)C1 [Example 1.171]
< 10 | COc1cc(-c2cccc(-c3cccc(NC(=O)c4cncn(C)c4=O)c3C)c2C)cc(F)c1CN[C@H]1CCC[C@@H]1O [Example 1.172]
10 to 1000 | COc1cc(-c2cccc(-c3cccc(Nc4nccc5c4NCCN5)c3C)c2C)cc(F)c1CN[C@@H]1CCC[C@@H]1O [Example 1.173]
< 10 | COc1cc(-c2cccc(-c3cccc(NC(=O)c4cn(C)c(=O)n(C)c4=O)c3C)c2C)cc(F)c1CN(C)C[C@@H]1CCC(=O)N1 [Example 1.175]
< 10 | COc1cc(-c2cccc(-c3cccc(NC(=O)c4cncn(C)c4=O)c3C)c2C)cc(F)c1CN(C)CCO [Example 1.176]
< 10 | COc1cc(-c2cccc(-c3cccc(NC(=O)c4cn(C)c(=O)n(C)c4=O)c3C)c2C)cc(F)c1CNC1COC1 [Example 1.177]
< 10 | COc1cc(-c2cccc(-c3cccc(NC(=O)c4cn(C)c(=O)n(C)c4=O)c3C)c2C)cc(F)c1CN[C@@H]1CCC[C@@H]1O [Example 1.178]
< 10 | COc1cc(-c2cccc(-c3cccc(NC(=O)c4cn(C)c(=O)n(C)c4=O)c3C)c2C)cc(F)c1CNCCO [Example 1.179]
< 10 | COc1cc(-c2cccc(-c3cccc(Nc4nccc5nccnc45)c3C)c2C)cc(F)c1CN[C@@H]1CCC[C@@H]1O [Example 1.180]
< 10 | COc1cc(-c2cccc(-c3cccc(Nc4nccc5nccnc45)c3C)c2C)cc(F)c1CNC(C)C [Example 1.181]
1000 to 10000 | COc1cc(-c2cccc(-c3cccc(NC(=O)c4cncn(C)c4=O)c3C)c2C)cc(F)c1CN1CCNC(=O)C1 [Example 1.182]
1000 to 10000 | COc1cc(-c2cccc(-c3cccc(NC(=O)c4c[nH]c(=O)n(C)c4=O)c3C)c2C)cc(F)c1CN1CCNC(=O)C1 [Example 1.183]
10 to 1000 | COc1cc(-c2cccc(-c3cccc(Nc4nccc5c4C(=O)N(C)CC5)c3C)c2C)cc(F)c1CNC(C)C [Example 1.184]
10 to 1000 | COc1cc(-c2cccc(-c3cccc(Nc4nccc5c4C(=O)N(C)CC5)c3C)c2C)cc(F)c1CNC[C@@H](C)O [Example 1.185]
< 10 | COc1cc(-c2cccc(-c3cccc(NC(=O)c4cncn(C)c4=O)c3C)c2C)cc(F)c1CNC[C@H]1CCC(=O)N1 [Example 1.186]
< 10 | COc1cc(-c2cccc(-c3cccc(NC(=O)c4cn(C)c(=O)n(C)c4=O)c3C)c2C)cc(F)c1CNC[C@@H]1CCC(=O)N1 [Example 1.187]
< 10 | COc1cc(-c2cccc(-c3cccc(NC(=O)c4cn(C)c(=O)n(C)c4=O)c3C)c2C)cc(F)c1CN[C@@H]1CNC(=O)C1 [Example 1.188]
10 to 1000 | COc1cc(-c2cccc(-c3cccc(NC(=O)c4cncn(C)c4=O)c3C)c2C)cc(F)c1CN(C)C[C@@H]1CCC(=O)N1C [Example 1.189]
< 10 | CC[C@@H](O)NCc1c(F)cc(-c2cccc(-c3cccc(Nc4nccc5c4C(=O)N(C)CC5)c3C)c2C)cc1OC [Example 1.190]
< 10 | COc1cc(-c2cccc(-c3cccc(Nc4nccc5c4C(=O)N(C)CC5)c3C)c2C)cc(F)c1CN[C@@H]1CCC[C@@H]1O [Example 1.191]
10 to 1000 | COc1cc(-c2cccc(-c3cccc(Nc4nccc5c4C(=O)N(C)CC5)c3C)c2C)cc(F)c1CN(C)C[C@@H]1CCC(=O)N1 [Example 1.192]
< 10 | COc1cc(-c2cccc(-c3cccc(Nc4nccc5c4C(=O)N(C)CC5)c3C)c2C)cc(F)c1CNC[C@@H]1CCC(=O)N1 [Example 1.193]
10 to 1000 | COc1cc(-c2cccc(-c3cccc(NC(=O)C4=CNCN(C)C4=O)c3C)c2C)cc(F)c1CNC[C@@H]1CCC(=O)N1C [Example 1.194]
< 10 | COc1cc(-c2cccc(-c3cccc(NC(=O)c4cncn(C)c4=O)c3C)c2C)cc(F)c1CNC[C@@H]1CCC(=O)N1C [Example 1.195]
10 to 1000 | COc1cc(-c2cccc(-c3cccc(Nc4nccc5c4C(=O)N(C)CC5)c3C)c2C)cc(F)c1CN[C@@H]1CNC(=O)C1 [Example 1.196]
< 10 | COc1cc(-c2cccc(-c3cccc(NC(=O)c4cncn(C)c4=O)c3C)c2C)cc(F)c1CNC1COC1 [Example 1.197]
